From patent US20090023718A1 (Aton Pharma, Inc., priority 2003, published 2009) come the findings set out here.

The target of assay [1] is T1, histone deacetylase, subtype 1 (HDAC1) (Homo sapiens, UniProt Q13547).
T1 construct: Flag; made in house
Briefly: HDAC1-Flag assay (in vitro fluorescent deacetylation assay). To be noted: epitope-tagged human HDAC1 complex, substrate at Km, mean ± spread (N), read-out: HDAC Inhibition (IC50) nm. Type of assay: biochemical. The procedure:
Novel compounds were tested for their ability to inhibit histone deacetylase, subtype 1 (HDAC1) using an in vitro deacetylation assay. The enzyme source for this assay was an epitope-tagged human HDAC1 complex immuno-purified from stably expressing mammalian cells. The substrate consisted of a commercial product containing an acetylated lysine side chain (BIOMOL Research Laboratories, Inc., Plymouth Meeting, Pa.). Upon deacetylation of the substrate by incubation with the purified HDAC1 complex, a fluorophore is produced that is directly proportional to the level of deacetylation.

Assay [2] deals with murine erythroleukemia cell line SC9. Briefly: MTS assay (Cell Titer 96 Aqueous One Solution Cell Proliferation Assay). To be noted: Mus musculus; SC9 cells, 48 hours incubation with increasing concentrations, inhibition of proliferation; mean ± spread (N). Type of assay: cell-based. The procedure: The novel compounds of the present invention were tested for their ability to inhibit proliferation of the murine erythroleukemia cell line SC9.
The MTS assay, also referred to as the Cell Titer 96 Aqueous One Solution Cell Proliferation Assay, is a colorimetric method for determining the number of viable cells in proliferation, cytotoxicity or chemosensitivity assays. The MTS reagent contains a novel tetrazolium compound [3-(4,5-dimethylthiazol-2-yl)-5-(3-carboxymethoxyphenyl)-2-(4-sulfophenyl)-2H-tetrazolium, inner salt] and electron coupling reagent (phenazine ethosulfate; PES). Murine erythroleukemia cells (SC-9) were incubated with vehicle or increasing concentrations of compound for 48 hours. Cell proliferation was quantitated by adding a small amount of the MTS reagent directly to culture wells, incubating for 1-4 hours and then recording the absorbance at 490 nm with a 96-well plate reader. The quantity of formazan product, as measured by […] absorbance, is directly proportional to the number of living cells in culture.
A general note: Formazan colour is commonly taken as a measure of viable cells.

[3] abbreviates: Table 1, compounds of formula II.
Where [4] appears, read: Table 4, compounds of formula V.
Setting [5] is: Table 5, other HDAC inhibitors of formula I.

Read-outs that look alike come from different tables or passages of the source.

For orientation: IC50 means the concentration that gives 50% inhibition.

T1 sequence (Q13547 whole entry): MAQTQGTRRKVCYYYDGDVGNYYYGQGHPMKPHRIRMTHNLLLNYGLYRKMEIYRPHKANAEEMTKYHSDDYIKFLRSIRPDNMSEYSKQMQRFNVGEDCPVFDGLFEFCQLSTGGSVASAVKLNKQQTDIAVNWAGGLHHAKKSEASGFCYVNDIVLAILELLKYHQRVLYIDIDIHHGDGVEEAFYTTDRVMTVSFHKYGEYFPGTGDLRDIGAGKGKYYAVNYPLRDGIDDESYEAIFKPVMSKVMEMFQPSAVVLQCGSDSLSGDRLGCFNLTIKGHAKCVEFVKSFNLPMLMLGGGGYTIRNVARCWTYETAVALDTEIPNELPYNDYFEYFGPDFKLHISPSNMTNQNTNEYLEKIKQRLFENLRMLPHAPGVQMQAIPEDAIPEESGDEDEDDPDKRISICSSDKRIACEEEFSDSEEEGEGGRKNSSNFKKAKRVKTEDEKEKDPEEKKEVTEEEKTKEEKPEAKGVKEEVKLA

On to `O=C(CCCCCC(=O)N(CC(=O)Nc1nc2ccccc2s1)CC(=O)Nc1nc2ccccc2s1)NO` [Compound 3, Heptanedioic acid bis-(benzothiazol-2-ylcarbamoylmethyl)-amide hydroxyamide], for which the IC50 is 9.5 ± 4.9 nM in assay [1] (setting [3]) and 50 ± 27.7 nM in assay [2].

`O=C(CCCCCC(=O)N(CC(=O)Nc1ccc(F)cc1)CC(=O)Nc1ccc(F)cc1)NO` [Compound 4, Heptanedioic acid bis-[(4-fluoro-phenylcarbamoyl)-methyl]-amide hydroxyamide]: the half-inhibitory concentration (IC50) in assay [1] (setting [3]) amounted to 16 nM; in assay [2] it was 128 nM.

Turning to `O=C(CCCCCC(=O)N(CC(=O)Nc1ccccc1)CC(=O)Nc1ccccc1)NO` [Compound 6, Heptanedioic acid bis-phenylcarbamoylmethyl-amide hydroxyamide], the IC50 was 20.5 ± 0.7 nM in assay [1] (setting [3]) and 304 ± 83.4 nM in assay [2].

Turning to `O=C(CCCCCC(=O)N(CC(=O)Nc1ccccc1)CC(=O)Nc1cccc2cccnc12)NO` [Compound 7, Heptanedioic acid hydroxyamide phenylcarbamoylmethyl-(quinolin-8-ylcarbamoylmethyl)-amide], the IC50 turned out to be 25 ± 21.2 nM in assay [1] (setting [3]) and 46 ± 10.9 nM in assay [2].

Consider `O=C(CCCCCC(=O)N(CC(=O)NCCc1ccccc1)CC(=O)Nc1ccccc1)NO` [Compound 8, Heptanedioic acid hydroxyamide (phenethylcarbamoyl-methyl)-phenylcarbamoylmethyl-amide], for which the IC50 in assay [1] (setting [3]) worked out at 26 ± 5.6 nM; in assay [2] it was 852 nM.

For the compound `O=C(CCCCCC(=O)N(CC(=O)Nc1cccc2cccnc12)CC(=O)Nc1cccc2cccnc12)NO` [Compound 9, Heptanedioic acid bis-(quinolin-8-ylcarbamoylmethyl)-amide hydroxyamide], the figures for the IC50 in assay [1] (setting [3]) and in assay [2] were 26.5 ± 6.3 nM and 52 ± 24.9 nM, respectively.

Turning to `O=C(CCCCCC(=O)N(CC(=O)Nc1ccccc1)CC(=O)NC1CCCCC1)NO` [Compound 11, Heptanedioic acid cyclohexylcarbamoylmethyl-phenylcarbamoylmethyl-amide hydroxyamide], the IC50 in assay [1] (setting [3]) came to 34.5 ± 12.7 nM; in assay [2], 705 nM.

Consider `O=C(CCCCCC(=O)N(CC(=O)Nc1ccc(C(F)(F)F)cc1)CC(=O)Nc1ccc(C(F)(F)F)cc1)NO` [Compound 25, Heptanedioic acid bis-[(4-trifluoromethyl-phenylcarbamoyl)-methyl]-amide hydroxyamide], for which the results for the IC50 in assay [1] (setting [3]) and in assay [2] were 89.5 ± 12 nM and 340 nM, respectively.

On to `O=C(CCCCCC(=O)N(CC(=O)Nc1ccc2c(c1)OCO2)CC(=O)Nc1ccc2c(c1)OCO2)NO` [Compound 29, Heptanedioic acid bis-(benzo[1,3]dioxol-5-ylcarbamoylmethyl)-amide hydroxyamide], for which the figures for the IC50 in assay [1] (setting [3]) and in assay [2] were 22.5 ± 16.2 nM and 586 nM, respectively.

With `COc1ccc2nc(NC(=O)CN(CC(=O)Nc3nc4ccc(OC)cc4s3)C(=O)CCCCCC(=O)NO)sc2c1` [Compound 34, Heptanedioic acid bis-[(6-methoxy-benzothiazol-2-ylcarbamoyl)-methyl]-amide hydroxyamide], the IC50 in assay [1] (setting [3]) came out at 7.6 ± 5.6 nM; in assay [2] it was 397 ± 98.2 nM.

`O=C(CCCCCC(=O)N(CC(=O)Nc1nc2ccc(Cl)cc2s1)CC(=O)Nc1nc2ccc(Cl)cc2s1)NO` [Compound 35, Heptanedioic acid bis-[(6-chloro-benzothiazol-2-ylcarbamoyl)-methyl]-amide hydroxyamide]: the IC50 came to 10.6 ± 7.7 nM in assay [1] (setting [3]) and 645 nM in assay [2].

For the compound `Cc1cccc2sc(NC(=O)CN(CC(=O)Nc3nc4c(C)cccc4s3)C(=O)CCCCCC(=O)NO)nc12` [Compound 36, Heptanedioic acid bis-[(4-methyl-benzothiazol-2-ylcarbamoyl)-methyl]-amide hydroxyamide], the figures for the IC50 in assay [1] (setting [3]) and in assay [2] were 14.5 ± 4.9 nM and 275 ± 19 nM, respectively.

For the compound `O=C(CCCCCC(=O)N(CC(=O)NC1CCc2ccccc21)CC(=O)NC1CCc2ccccc21)NO` (centres unmarked) [Compound 37, Heptanedioic acid bis-(indan-1-ylcarbamoylmethyl)-amide hydroxyamide], the half-inhibitory concentration (IC50) in assay [1] (setting [3]) was 71 ± 1.4 nM; in assay [2], 388 nM.

On to `O=C(CCCCCC(=O)N(CC(=O)Nc1nc2ccc(F)cc2s1)CC(=O)Nc1nc2ccc(F)cc2s1)NO` [Compound 39, Heptanedioic acid bis-[(6-fluoro-benzothiazol-2-ylcarbamoyl)-methyl]-amide hydroxyamide], for which the results for the IC50 in assay [1] (setting [3]) and in assay [2] were 31.5 ± 12 nM and 346 nM, respectively.

On to `O=C(CCCCCCN(CC(=O)Nc1ccccc1)CC(=O)Nc1ccccc1)NO` [Compound 41, 7-(Bis-phenylcarbamoylmethyl-amino)-heptanoic acid hydroxyamide], for which the IC50 in assay [1] (Table 2, compounds of formula III) came to 18.5 ± 3.5 nM; in assay [2], 332 nM.

Consider `O=C(CCCCCCN(Cc1ccccc1)Cc1ccccc1)NO` [Compound 80], for which, in assay [1] (setting [4]), the IC50 was determined as 374 ± 39.5 nM.

As to `O=C(CCCCCCN(CCc1ccccc1)Cc1ccccc1)NO` [Compound 81], the IC50 was determined as 159 ± 14.1 nM in assay [1] (setting [4]) and 934 nM in assay [2].

With `O=C(CCCCCCN(CCc1c[nH]c2ccccc12)Cc1ccc(Br)cc1)NO` [Compound 82], in assay [1] (setting [4]), the IC50 was 188 ± 72.8 nM.

In the case of `O=C(CCCCCCCN(CCc1c[nH]c2ccccc12)Cc1ccc(Br)cc1)NO` [Compound 83], the half-maximal inhibitory concentration (IC50) in assay [1] (setting [4]) is 204 ± 58.6 nM.

In the case of `CN(CCCCCC(=O)NO)CC(=O)NCc1ccccc1` [Compound 85], the IC50 in assay [1] (setting [5]) was determined as 571 ± 52.3 nM.

`CN(CCCCCC(=O)NO)CC(=O)NCCc1ccccc1` [Compound 86]: the concentration for half-maximal inhibition (IC50) in assay [1] (setting [5]) came to 247 ± 33.2 nM.

Regarding “Hexanedioic acid bis-(quinolin-8-ylcarbamoylmethyl)-amide hydroxyamide [Compound 15]”, in assay [1] (setting [3]), the IC50 amounted to 82 ± 9.8 nM.
